Like-named read-outs stand apart in the source and are kept apart here.
Columns and labels:
[1] = test system: 1b_Huh-Luc/Neo-ET cell line (bicistronic genotype 1b replicon in Huh 7 cells); assay: HCV 1b replicon assay, luciferase readout; format: cell-based, HCV genotype 1b; settings: Hepatitis C virus
How it was run: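 Huh 7 cells persistently carrying a bicistronic genotype 1b luciferase replicon, treated with compound in triplicate the day after plating and incubated 72 h. Luciferase activity measured by Bright-Glo and expressed as percent of untreated control; EC50 from four-parameter fit, repeated several times.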

HCV NS5B S365A mutant = molecular target: T1, HCV NS5B S365A mutant (Hepatitis C virus genotype 1b, UniProt Q9WMX2, S2784A); assay: Activity against HCV NS5B S365A mutant; format: cell-based; settings: for Inhibition of HCV NS5B S3865A mutant: class symbol
T1 construct: HCV NS5B C316Y or S365A mutant as indicated; expressed in transfected cells
Experimental: (§1) The biological activity against HCV 1b, 1a, or 2a is indicated as being *, **, ***, or ****, which corresponds to EC50 ranges of EC50>1000 nM, 100 nM<EC50≦1000 nM, 10 nM<EC50≦100 nM, or EC50≦10 nM, respectively. The biological activity against HCV NS5B C316Y or S365A mutant is indicated as being […], which corresponds to EC50 ranges of EC50>1000 nM, 200 nM<EC50≦1000 nM, […], respectively.

HCV 1a = HCV 1a replicon assay; format: cell-based; settings: Hepatitis C virus; class symbol; cell marked (HCV genotype 1a replicon); read-out: Inhibition of HCV genotype 1a replicon
Experimental: Compounds of the invention can inhibit multiple genotypes of HCV selected but not limited to 1a, 1h, 2a, 3a, and 4a. The EC50s are measured in the corresponding replicon assays that are similar to HCV 1b replicon assay as described above.
as §1

HCV NS5B C316Y mutant = molecular target: T2, HCV NS5B C316Y mutant (Hepatitis C virus genotype 1b, UniProt Q9WMX2, C2735Y); assay: Activity against HCV NS5B C316Y mutant; format: cell-based; settings: for Inhibition of HCV N55B C316Y mutant: class symbol
T2 construct: HCV NS5B C316Y or S365A mutant as indicated; expressed in transfected cells
Experimental: as §1

[2] = Huh-7, 1b_Huh-Luc/Neo-ET cell line, read-out: EC50, half-maximal inhibition of HCV 1b replication
[3] = Huh-7, class symbol, HCV genotype 1b replicon, read-out: Inhibition of HCV genotype 1b replicon
[4] = Huh-7, numeric value, HCV genotype 1b replicon, read-out: Inhibition of HCV genotype 1b replicon (EC50)

T1 sequence (Q9WMX2 2420-3010 S2784A): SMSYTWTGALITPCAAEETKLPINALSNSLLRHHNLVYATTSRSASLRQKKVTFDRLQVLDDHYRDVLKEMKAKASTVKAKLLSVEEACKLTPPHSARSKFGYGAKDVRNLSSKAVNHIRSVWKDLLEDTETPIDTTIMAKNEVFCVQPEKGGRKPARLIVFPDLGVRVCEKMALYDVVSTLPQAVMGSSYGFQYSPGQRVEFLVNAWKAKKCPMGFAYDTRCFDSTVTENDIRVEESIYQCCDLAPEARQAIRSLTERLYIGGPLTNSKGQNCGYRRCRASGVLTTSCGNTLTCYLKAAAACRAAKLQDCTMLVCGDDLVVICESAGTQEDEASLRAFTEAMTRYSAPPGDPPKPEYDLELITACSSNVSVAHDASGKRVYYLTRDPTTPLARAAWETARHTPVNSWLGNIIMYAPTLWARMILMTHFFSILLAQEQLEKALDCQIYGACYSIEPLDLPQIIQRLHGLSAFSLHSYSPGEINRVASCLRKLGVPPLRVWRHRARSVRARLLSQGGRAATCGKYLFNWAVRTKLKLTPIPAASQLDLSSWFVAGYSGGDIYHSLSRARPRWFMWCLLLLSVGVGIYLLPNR
T2 sequence (Q9WMX2 2420-3010 C2735Y): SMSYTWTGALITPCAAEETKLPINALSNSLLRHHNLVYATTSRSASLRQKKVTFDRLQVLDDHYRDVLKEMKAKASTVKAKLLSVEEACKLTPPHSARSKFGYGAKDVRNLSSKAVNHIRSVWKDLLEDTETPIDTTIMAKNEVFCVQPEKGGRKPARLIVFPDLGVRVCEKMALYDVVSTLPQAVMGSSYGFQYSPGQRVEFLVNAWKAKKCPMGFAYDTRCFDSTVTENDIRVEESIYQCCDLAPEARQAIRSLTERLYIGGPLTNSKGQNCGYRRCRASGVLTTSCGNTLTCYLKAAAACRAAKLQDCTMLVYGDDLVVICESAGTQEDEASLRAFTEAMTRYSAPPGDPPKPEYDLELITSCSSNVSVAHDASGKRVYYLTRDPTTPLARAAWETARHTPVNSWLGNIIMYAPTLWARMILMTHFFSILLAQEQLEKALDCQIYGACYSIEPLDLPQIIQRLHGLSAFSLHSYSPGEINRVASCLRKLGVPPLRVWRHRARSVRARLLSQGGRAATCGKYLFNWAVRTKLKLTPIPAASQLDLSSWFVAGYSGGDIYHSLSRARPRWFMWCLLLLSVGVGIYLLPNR

CC1CCCN(S(C)(=O)=O)c2cc3oc(-c4ccc(F)cc4)c(-c4ncc[nH]4)c3cc21 (centres unmarked) [Compound B120]
EC50 [1, 2]: ≤ 10 nM
Inhibition of HCV NS5B S3865A mutant (HCV NS5B S365A mutant): †††
EC50 (HCV 1a): < 10 nM
Inhibition of HCV N55B C316Y mutant (HCV NS5B C316Y mutant): †††

CNC(=O)c1c(-c2ccc(F)cc2)oc2cc3c(cc12)[C@H](C)N(C)C(=O)CN3S(C)(=O)=O (single isomer, unassigned) [Compound B179]
EC50 [1, 2]: 10 to 100 nM
EC50 [1, 3]: 10 to 100 nM
EC50 (HCV NS5B S365A mutant): 200 to 1000 nM
Inhibition of HCV N55B C316Y mutant (HCV NS5B C316Y mutant): †††

CNC(=O)c1c(-c2ccc(Oc3ccc(F)cc3)cc2)oc2cc3c(cc12)[C@H](C)OC(C)(C)CN3S(C)(=O)=O (single isomer, unassigned) [Compound B176]
EC50 [1, 2]: 10 to 100 nM
EC50 [1, 4]: 13.6 nM
EC50 (HCV NS5B S365A mutant): 200 to 1000 nM
EC50 (HCV NS5B C316Y mutant): 200 to 1000 nM

CNC(=O)c1c(-c2ccc(Oc3ccc(F)cc3)cc2)oc2cc3c(cc12)[C@H](C)CCCN3S(C)(=O)=O (single isomer, unassigned) [Compound B85]
EC50 [1, 2]: ≤ 10 nM
EC50 [1, 4]: 3 nM
Inhibition of HCV NS5B S3865A mutant (HCV NS5B S365A mutant): †††
Inhibition of HCV N55B C316Y mutant (HCV NS5B C316Y mutant): †††

CNC(=O)c1c(-c2ccc(F)cc2)oc2cc3c(cc12)[C@@H]1C[C@@H]1CCN3S(C)(=O)=O (single isomer, unassigned) [Compound B132]
EC50 [1, 2]: ≤ 10 nM
EC50 [1, 3]: < 10 nM
Inhibition of HCV NS5B S3865A mutant (HCV NS5B S365A mutant): †††
Inhibition of HCV N55B C316Y mutant (HCV NS5B C316Y mutant): †††

CNC(=O)c1c(-c2ccc(F)cc2)oc2cc3c(cc12)[C@H](C)O[C@H](CS(C)(=O)=O)CN3S(C)(=O)=O [Compound B214]
EC50 [1, 3]: < 10 nM
Inhibition of HCV NS5B S3865A mutant (HCV NS5B S365A mutant): †††
Inhibition of HCV N55B C316Y mutant (HCV NS5B C316Y mutant): †††

CC1OCCN(S(C)(=O)=O)c2cc3oc(-c4ccc(F)cc4)c(-c4ncc[nH]4)c3cc21 (centres unmarked) [Compound B197]
EC50 [1, 2]: ≤ 10 nM
EC50 [1, 3]: < 10 nM
EC50 (HCV NS5B S365A mutant): 200 to 1000 nM
Inhibition of HCV N55B C316Y mutant (HCV NS5B C316Y mutant): †††

CNC(=O)c1c(-c2ccc(Oc3ccc(F)cc3)cc2)oc2cc3c(cc12)[C@H](C)O[C@H](CO)CN3S(C)(=O)=O [Compound B232]
EC50 [1, 2]: ≤ 10 nM
EC50 [1, 3]: < 10 nM
Inhibition of HCV NS5B S3865A mutant (HCV NS5B S365A mutant): †††
Inhibition of HCV N55B C316Y mutant (HCV NS5B C316Y mutant): †††

CNC(=O)c1c(-c2ccc(F)cc2)oc2cc3c(cc12)[C@H](C)OC(C)(C)CN3S(C)(=O)=O (single isomer, unassigned) [Compound B184]
EC50 [1, 2]: 10 to 100 nM
EC50 [1, 4]: 16.5 nM
EC50 (HCV NS5B S365A mutant): 200 to 1000 nM
EC50 (HCV NS5B C316Y mutant): > 1000 nM

CNC(=O)c1c(-c2ccc(F)cc2)oc2cc3c(cc12)C(C)N(CCO)CCN3S(C)(=O)=O (centres unmarked) [Compound B145]
EC50 [1, 2]: ≤ 10 nM
EC50 [1, 3]: < 10 nM
EC50 (HCV NS5B S365A mutant): 200 to 1000 nM
Inhibition of HCV N55B C316Y mutant (HCV NS5B C316Y mutant): †††

CC1c2cc3c(-c4ncc[nH]4)c(-c4ccc(F)cc4)oc3cc2N(S(C)(=O)=O)CCN1C (centres unmarked) [Compound B171]
EC50 [1, 2]: ≤ 10 nM
EC50 [1, 3]: < 10 nM
EC50 (HCV NS5B S365A mutant): 200 to 1000 nM
Inhibition of HCV N55B C316Y mutant (HCV NS5B C316Y mutant): †††

CNC(=O)c1c(-c2ccc(Oc3ccc(F)cc3)cc2)oc2cc3c(cc12)[C@H](C)n1nncc1CN3S(C)(=O)=O (single isomer, unassigned) [Compound B163]
EC50 [1, 2]: ≤ 10 nM
EC50 [1, 3]: < 10 nM
Inhibition of HCV NS5B S3865A mutant (HCV NS5B S365A mutant): †††
Inhibition of HCV N55B C316Y mutant (HCV NS5B C316Y mutant): †††

From patent US20130302282A1, “Inhibitors of Hepatitis C Virus” (priority 2010, published 2013)
